Series [1] is described as follows: systemic absorption after topical application to the lesion. To be noted: saturation of the lesion. It is filed as in vivo. An excerpt:
(§1) Fluorouracil Glycolate is formed by a chemical reaction between fluorouracil and glycolic acid, in an acid-base reaction under the Lowry-Bronsted model in a typical acid-base reaction. The new unique compound when formed is stable at room temperature for approximately one year. The molecular weight of the new compound is 205.72. The magic wart cream formulation, a thick cream resembling peanut butter, has a consistency designed for easy application to the lesions with a toothpick. This is to eliminate any messy, troublesome dribbling as this was a problem encountered early and then overcome on a trial and error basis, resulting in the thicker consistency. By applying the magic wart cream to only the center of the wart, and not to the edges, it focuses the target of the high-sulfur containing, amino acid rich matrix of keratin to where the fluorouracil glycolate can pool. Then it forms a depot within the small socket of the lesion. This dictates the nature of the liberation absorption and distribution the drug delivery system.

Series [2] in a line: stability of the formed compound at room temperature. It is filed as physicochemical.
Description: as §1

On to `O=C(O)CO.O=c1[nH]cc(F)c(=O)[nH]1` [Fluorouracil Glycolate], for which the systemic absorption entry in series [1] is reported as “without observed systemic absorption”. The “stable at room temperature (duration)” value in series [2] was “approximately one”.
